In patent US20230255953A1, “USE OF ROLUPERIDONE IN PREVENTING RELAPSE IN SCHIZOPHRENIA PATIENTS” (Minerva Neurosciences, Inc., priority 2022, published 2023):

Assays:
[1] = system: patients with negative symptoms of schizophrenia; experiment: Study #1 (MIN-101C03) Phase 2b: PANSS-derived scores (PSM, NSFS, total, subscales); type: in vivo, human; details: for Change from Baseline LS Mean: 3-Factor General Psychopathology Subscale Score / Change from Baseline LS Mean: 3-Factor Negative Subscale Score / Change from Baseline LS Mean: 3-Factor Positive Subscale Score / Change from Baseline LS Mean: 5-Factor Activation Score (PSM) / Change from Baseline LS Mean: 5-Factor Autistic Preoccupation Score (PSM) / Change from Baseline LS Mean: 5-Factor Dysphoric Mood Score (PSM) / Change from Baseline LS Mean: 5-Factor Positive Score (PSM) / Change from Baseline LS Mean: NSFS (post-hoc) / Change from Baseline LS Mean: PANSS Negative Factor Score (pentagonal structure model) / Change from Baseline LS Mean: PANSS Total Score / Effect Size vs Placebo: 3-Factor General Psychopathology Subscale Score / Effect Size vs Placebo: 3-Factor Negative Subscale Score / Effect Size vs Placebo: 3-Factor Positive Subscale Score / Effect Size vs Placebo: 5-Factor Activation Score (PSM) / Effect Size vs Placebo: 5-Factor Autistic Preoccupation Score (PSM) / Effect Size vs Placebo: 5-Factor Dysphoric Mood Score (PSM) / Effect Size vs Placebo: 5-Factor Positive Score (PSM) / Effect Size vs Placebo: NSFS (post-hoc) / Effect Size vs Placebo: PANSS Negative Factor Score (pentagonal structure model) / Effect Size vs Placebo: PANSS Total Score: ITT
From the text: “PANSS”, as used herein, refers to the positive and negative syndrome scale, which is used by physicians and clinicians to measure the severity of the symptoms in a schizophrenia patient. The scale is divided into three parts, a positive scale, which provides a “PANSS positive subscore”, a negative scale, which provides a “PANSS negative subscore”, and general psychopathology scale. The sum of these three parts provides a PANSS total score, which ranges from 30 to 210 (where higher scores indicate more severe symptoms). (Kay, S. R., et al. “The positive and negative syndrome scale (PANSS) for schizophrenia,” Schizophr Bulletin, 13(2), 261-276 (1987)).
As used herein, PANSS Marder's negative symptoms factor score (“NSFS”), refers to selection of seven of the PANSS items used by physicians and clinicians to measure the severity of the negative symptoms in a schizophrenia patient. (See Tables 5A and 5B.) The NSFS total score ranges from 7 to 49. (Marder, S. R. et al. “The effects of risperidone on the five dimensions of schizophrenia derived by factor analysis: combined results of the North American trials,” J Clin Psychiatry. 1997; 58:538-46.)
The PANSS was designed to be used in patients with schizophrenia to measure the overall severity of schizophrenic symptoms. The scale has been validated in different cultures and languages and is reliable and acceptable to regulatory health authorities as a primary scale to determine efficacy of intervention in schizophrenia. The name refers to the 2 types of symptoms in schizophrenia, as defined by the American Psychiatric Association: positive symptoms, which refer to an excess or distortion of normal functions (e.g., hallucinations and delusions), and negative symptoms, which represent a diminution or loss of normal functions.
The patient is rated from 1 to 7 on 30 different symptoms based on the interview as well as reports of family members or primary care hospital workers. The original PANSS included 3 groups of symptoms and subscale scores Positive, Negative, and General Psychopathology. Since the inception of PANSS, investigators have proposed additional grouping (structures) of PANSS such as the Marder structure (Marder, S. R. et al. “Issues and perspectives in designing clinical trials for negative symptoms in schizophrenia: consensus statements,” Schizophrenia Bulletin Open. 2020; 1(1). doi:10.1093/schizbullopen/sgz001) and the White structure (White, L. et al. “Empirical assessment of the factorial structure of clinical symptoms in schizophrenia”. Psychopathology. 1997; 30263-274).
The PANSS was assessed at the time points described in Table 4.
The PANSS-derived endpoints used in these studies and the integrated analyses are described in Table 5A and a summary of the individual PANSS items used by physicians and clinicians to measure the severity of the symptoms in a schizophrenia patient is provided in Table 5B. The scale is divided into three parts, a positive scale, which provides a “PANSS positive subscore”, a negative scale, which provides a “PANSS negative subscore”, and general psychopathology scale. The sum of these three parts provides a PANSS total score, which ranges from 30 to 210 (where higher scores indicate more severe symptoms). (See Kay, S. R., et al. “The positive and negative syndrome scale (PANSS) for schizophrenia,” Schizophr Bulletin, 13(2), 261-276 (1987) and Gopal, S., et al. “Improvement of Negative Symptoms in Schizophrenia with Paliperidone Palmitate 1-Month and 3-Month Long-Acting Injectables: Results from a Phase 3 Non-Inferiority Study” Neuropsychiatric Disease and Treatment, 681-690, DOI: 10.2147/NDT.5226296, both of which are incorporated by reference.) […]

[2] = biological target: sigma2 (Homo sapiens, UniProt Q5BJF2); details: background statement; cited from earlier work
Chain of sigma2 (Q5BJF2 whole entry): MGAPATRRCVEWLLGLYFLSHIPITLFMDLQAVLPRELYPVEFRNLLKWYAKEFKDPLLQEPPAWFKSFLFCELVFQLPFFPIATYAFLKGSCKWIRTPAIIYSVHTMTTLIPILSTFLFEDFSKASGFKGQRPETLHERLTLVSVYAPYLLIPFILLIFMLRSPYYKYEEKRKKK

[3] = biological target: T1, α1A-adrenergic (Homo sapiens, UniProt P35348); details: background statement; cited from earlier work
T1 sequence (P35348 1-466): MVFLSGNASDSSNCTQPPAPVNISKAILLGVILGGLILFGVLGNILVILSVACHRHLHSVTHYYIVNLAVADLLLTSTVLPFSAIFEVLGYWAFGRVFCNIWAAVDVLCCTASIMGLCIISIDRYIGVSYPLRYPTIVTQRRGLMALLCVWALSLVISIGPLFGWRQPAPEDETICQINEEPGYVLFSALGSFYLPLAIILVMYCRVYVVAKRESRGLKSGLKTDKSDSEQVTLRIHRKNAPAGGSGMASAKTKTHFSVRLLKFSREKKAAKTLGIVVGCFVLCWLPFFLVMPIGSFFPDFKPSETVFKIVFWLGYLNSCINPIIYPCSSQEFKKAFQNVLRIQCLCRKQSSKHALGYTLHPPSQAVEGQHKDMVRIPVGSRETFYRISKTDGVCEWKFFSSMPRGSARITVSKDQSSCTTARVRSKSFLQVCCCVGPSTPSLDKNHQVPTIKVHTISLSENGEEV

[4] = system: histaminergic receptors; details: background statement; cited from earlier work

1H-Isoindol-1-one,2-[ [1-[2-(4-fluorophenyl)-2-oxoethyl]-4-piperidinyl]methyl]-2,3-dihydro-, hydrochloride, hydrate (1:1:2) [Roluperidone]
Effect Size vs Placebo: 20% reduction in NSFS responders ([1]; 32 mg QD, Week 12 DB): 0.06
Effect Size vs Placebo: 30% reduction in NSFS responders ([1]; 32 mg QD, Week 12 DB): 0
Number of Patients with 20% reduction in NSFS at Week 12 ([1]; 32 mg QD, Week 12 DB): 15/51
Number of Patients with 30% reduction in NSFS at Week 12 ([1]; 32 mg QD, Week 12 DB): 2/51
Patients with 20% reduction in NSFS at Week 12 (%) ([1]; 32 mg QD, Week 12 DB): (29%)
Patients with 30% reduction in NSFS at Week 12 (%) ([1]; 32 mg QD, Week 12 DB): (4%)
Change from Baseline LS Mean: 3-Factor General Psychopathology Subscale Score ([1]; 32 mg QD, Week 12 DB): −1.07
Change from Baseline LS Mean: 3-Factor Negative Subscale Score ([1]; 32 mg QD, Week 12 DB): −3.35
Change from Baseline LS Mean: 3-Factor Positive Subscale Score ([1]; 32 mg QD, Week 12 DB): 0.46
Change from Baseline LS Mean: 5-Factor Activation Score (PSM) ([1]; 32 mg QD, Week 12 DB): −0.05
Change from Baseline LS Mean: 5-Factor Autistic Preoccupation Score (PSM) ([1]; 32 mg QD, Week 12 DB): −0.85
Change from Baseline LS Mean: 5-Factor Dysphoric Mood Score (PSM) ([1]; 32 mg QD, Week 12 DB): −0.32
Change from Baseline LS Mean: 5-Factor Positive Score (PSM) ([1]; 32 mg QD, Week 12 DB): 0.58
Change from Baseline LS Mean: NSFS (post-hoc) ([1]; 32 mg QD, Week 12 DB): −3.43
Change from Baseline LS Mean: PANSS Negative Factor Score (pentagonal structure model) ([1]; 32 mg QD, Week 12 DB): −3.07
Change from Baseline LS Mean: PANSS Total Score ([1]; 32 mg QD, Week 12 DB): −3.66
Effect Size vs Placebo: 3-Factor General Psychopathology Subscale Score ([1]; 32 mg QD, Week 12 DB): 0.23
Effect Size vs Placebo: 3-Factor Negative Subscale Score ([1]; 32 mg QD, Week 12 DB): 0.54
Effect Size vs Placebo: 3-Factor Positive Subscale Score ([1]; 32 mg QD, Week 12 DB): 0.16
Effect Size vs Placebo: 5-Factor Activation Score (PSM) ([1]; 32 mg QD, Week 12 DB): 0.44
Effect Size vs Placebo: 5-Factor Autistic Preoccupation Score (PSM) ([1]; 32 mg QD, Week 12 DB): 0.08
Effect Size vs Placebo: 5-Factor Dysphoric Mood Score (PSM) ([1]; 32 mg QD, Week 12 DB): 0.11
Effect Size vs Placebo: 5-Factor Positive Score (PSM) ([1]; 32 mg QD, Week 12 DB): −0.13
Effect Size vs Placebo: NSFS (post-hoc) ([1]; 32 mg QD, Week 12 DB): 0.61
Effect Size vs Placebo: PANSS Negative Factor Score (pentagonal structure model) ([1]; 32 mg QD, Week 12 DB): 0.45
Effect Size vs Placebo: PANSS Total Score ([1]; 32 mg QD, Week 12 DB): 0.34
Effect Size vs Placebo: 20% reduction in NSFS responders ([1]; 64 mg QD, Week 12 DB): 0.17
Effect Size vs Placebo: 30% reduction in NSFS responders ([1]; 64 mg QD, Week 12 DB): 0.15
Number of Patients with 20% reduction in NSFS at Week 12 ([1]; 64 mg QD, Week 12 DB): 18/54
Number of Patients with 30% reduction in NSFS at Week 12 ([1]; 64 mg QD, Week 12 DB): 7/54
Change from Baseline LS Mean: 3-Factor General Psychopathology Subscale Score ([1]; 64 mg QD, Week 12 DB): −2.58
Change from Baseline LS Mean: 3-Factor Negative Subscale Score ([1]; 64 mg QD, Week 12 DB): −3.82
Change from Baseline LS Mean: 3-Factor Positive Subscale Score ([1]; 64 mg QD, Week 12 DB): 0.36
Change from Baseline LS Mean: 5-Factor Activation Score (PSM) ([1]; 64 mg QD, Week 12 DB): −0.17
Change from Baseline LS Mean: 5-Factor Autistic Preoccupation Score (PSM) ([1]; 64 mg QD, Week 12 DB): −1.21
Change from Baseline LS Mean: 5-Factor Dysphoric Mood Score (PSM) ([1]; 64 mg QD, Week 12 DB): −1.04
Change from Baseline LS Mean: 5-Factor Positive Score (PSM) ([1]; 64 mg QD, Week 12 DB): −0.25
Change from Baseline LS Mean: NSFS (post-hoc) ([1]; 64 mg QD, Week 12 DB): −3.9
Change from Baseline LS Mean: PANSS Negative Factor Score (pentagonal structure model) ([1]; 64 mg QD, Week 12 DB): −3.50
Change from Baseline LS Mean: PANSS Total Score ([1]; 64 mg QD, Week 12 DB): −5.83
Effect Size vs Placebo: 3-Factor General Psychopathology Subscale Score ([1]; 64 mg QD, Week 12 DB): 0.56
Effect Size vs Placebo: 3-Factor Negative Subscale Score ([1]; 64 mg QD, Week 12 DB): 0.70
Effect Size vs Placebo: 3-Factor Positive Subscale Score ([1]; 64 mg QD, Week 12 DB): 0.20
Effect Size vs Placebo: 5-Factor Activation Score (PSM) ([1]; 64 mg QD, Week 12 DB): 0.49
Effect Size vs Placebo: 5-Factor Autistic Preoccupation Score (PSM) ([1]; 64 mg QD, Week 12 DB): 0.22
Effect Size vs Placebo: 5-Factor Dysphoric Mood Score (PSM) ([1]; 64 mg QD, Week 12 DB): 0.43
Effect Size vs Placebo: 5-Factor Positive Score (PSM) ([1]; 64 mg QD, Week 12 DB): 0.24
Effect Size vs Placebo: NSFS (post-hoc) ([1]; 64 mg QD, Week 12 DB): 0.78
Effect Size vs Placebo: PANSS Negative Factor Score (pentagonal structure model) ([1]; 64 mg QD, Week 12 DB): 0.57
Effect Size vs Placebo: PANSS Total Score ([1]; 64 mg QD, Week 12 DB): 0.57
PANSS PSM negative factor score, course in OL period ([1]; OL period (placebo crossed over) and whole study): trend of improvement continued
Antagonistic activity [2]: antagonistic activities
Antagonistic activity [3]: antagonistic activities
Affinity [4]: very low or no affinity
